Reference: article PMC3048764 (Brain research, 2010)

Legend:
[1] = test system: HT-22 (murine hippocampal) cells; details: cited from earlier work
[2] = test system: SK-N-SH neuroblastoma cells; details: up to 200 nM; ref Green et al. (1997b); cited from earlier work
[3] = test system: HT-22 (murine hippocampal) cells; details: cited from earlier work; for neuroprotection of non-phenolic estrogens, in words: all of the structure-activity studies; for neuroprotection against toxicity, in words: compared with βE2 or parent compound, ref Perez et al., 2005b
[4] = test system: HT-22 (murine hippocampal) cells; format: cell-based; details: insult not named
ERβ = details: competitive binding; ref Perez et al. (2005b); cited from earlier work
ERα = details: competitive binding; ref Perez et al. (2005b); cited from earlier work
HT-22 cells = assay: DCF assay of reactive oxygen species, glucose oxidase insult; format: cell-based; details: HT-22 cells insulted with glucose oxidase
[5] = test system: lipid peroxidation in rat brain homogenates; details: read-out: IC50 of lipid peroxidation seen by other groups; ref Hall et al., 1991; cited from earlier work
[6] = test system: HT-22 (murine hippocampal) cells; assay: Neuroprotection against glutamate toxicity, calcein-AM viability assay; format: cell-based; details: 10 μM concentration, paradigm of Behl's group (1997)
uterine weights = assay: Uterine weight; details: 1 day of exposure

CC(=O)[C@H]1CC[C@H]2[C@@H]3CCC4=CC(=O)CC[C@]4(C)[C@H]3CC[C@]12C [progesterone]
neuroprotection against glutamate insult ([1]; 10 μM, ref Behl et al. (1997)): did not find 10 μM progestrone (P4) to be neuroprotective | protection against serum deprivation [2]: did not find progesterone to be protectiive

C#C[C@]1(O)CC[C@H]2[C@@H]3CCc4cc(OC)ccc4[C@H]3CC[C@@]21C [mestranol]
neuroprotection of non-phenolic estrogens, in words [3]: did not have protect effects

COc1cc2c(cc1C13CC4CC(CC(C4)C1)C3)[C@H]1CC[C@]3(C)[C@@H](O)CC[C@H]3[C@@H]1CC2 [ZYC23, 3-O-methyl analog of (17beta)-2-(1-adamantyl)estradiol]
neuroprotection against toxicity, in words [3]: failed to protect cells against toxicity induced cell death

Cc1c(O)c(C23CC4CC(CC(C4)C2)C3)cc2c1CC[C@@H]1[C@@H]2CC[C@]2(C)C(=O)CC[C@@H]12 [ZYC26, 2-(1-adamantyl)-4-methylestrone]
fold decrease in EC50 for protection against neurotoxicity, first value ([4]; first of two values given 'respectively'): approximately 9 fold | fold decrease in EC50 for protection against neurotoxicity, second value ([4]; second of two values given 'respectively'): ~4 fold | ERβ binding, in words (ERβ): completely abolished the affinity | ERα binding, in words (ERα): completely abolished the affinity

C[C@]12CC[C@@H]3c4ccc(O)cc4CC[C@H]3[C@@H]1CC[C@@H]2O [βE2, 17β-estradiol]
decrease of ROS (HT-22 cells): not able to significantly decrease ROS | IC50 [5]: 21 µM | protection against glutamate toxicity at fixed concentration [6]: protective

C[C@]12CC(O)[C@@H]3c4ccc(O)cc4CC[C@H]3[C@@H]1CCC2=O (stereo partly shown) [Compound E1240]
neuroprotection against toxicity, in words [3]: neuroprotection was completely abolished

C[C@]12CC[C@@H]3c4ccc(O)cc4CC[C@H]3[C@@H]1CCC2=O [Compound E1, estrone]
increase of uterine weights (uterine weights): 71%

C[C@]12CC=C3c4ccc(O)cc4CC[C@H]3[C@@H]1CC[C@@H]2O [ZYC1]
ERβ binding, in words (ERβ): did not drastically change the affinity | ERα binding, in words (ERα): did not drastically change the affinity

C[C@]12CC[C@@H]3c4ccc(O)cc4CC[C@H]3[C@@H]1CC1(CCCC1)C2=O [ZYC2]
neuroprotection against toxicity, in words [3]: did not enhance neuroprotection

CCC(C)c1c(O)ccc2c1CC[C@@H]1[C@@H]2CC[C@]2(C)C(=O)CC[C@@H]12 (stereo partly shown) [ZYC17]
ERβ binding, in words (ERβ): completely inhibited estrogen receptor binding | ERα binding, in words (ERα): completely inhibited estrogen receptor binding

C[C@]12CC[C@@H]3c4ccc(O)cc4CC[C@H]3[C@@H]1CC[C@H]2O [αE2]
ERβ binding, in words (ERβ): less affinity | ERα binding, in words (ERα): less affinity

CC(=O)[C@H]1CC[C@H]2[C@@H]3CC[C@@H]4C[C@H](O)CC[C@]4(C)[C@H]3CC[C@]12C [pregnanolone]
protection against glutamate insult at high dose ([1]; 10 μM dose, ref Gursoy et al. (2001)): no protection | concentration of optimal protection against glutamate insult ([1]; ref Gursoy et al. (2001)): 500 nM

C#C[C@]1(O)CC[C@H]2[C@@H]3CCc4cc(OC5CCCC5)ccc4[C@H]3CC[C@@]21C [quinestrol]
neuroprotection of non-phenolic estrogens, in words [3]: did not have protect effects

C[C@]12CC[C@@H]3c4ccc(O)cc4CC[C@H]3[C@@H]1CC[C@@H]2OC(=O)c1ccccc1 [ZYC30]
neuroprotection against toxicity, in words [3]: decreased the potency of the parent compound

CC12CCC3c4ccc(O)cc4CCC3C1CCC2O (stereo not shown) [PS2]
neuroprotection against toxicity, in words [3]: reduced neuroprotective potencies
